In US20040175568A1, “Fullerodendrimer-comprising film” (priority 2003, published 2004):

Test: Oxidation and reduction potential of fullerodendrimer
Type: physicochemical

- first oxidation potential: +1,120 mV
- first reduction potential: −1,120 mV
SMILES: c12c3c4c5c1c1c6c7c2c2c8c3c3c9c4c4c%10c5c5c1c1c6c6c%11c7c2c2c7c8c3c3c8c9c4c4c9c%10c5c5c1c1c6c6c%11c2c2c7c3c3c8c4c4c9c5c1c1c6c2c3c41 [Example C60, C60]
